Data: PubChem BioAssay AID212 (DTP/NCI, 2004)
Values joined by “and” are separate entries in the source; they are usually repeats but may differ in a detail not shown here. Equal entries are not always repeated. Results filed as inconclusive are left out.

Test system: BDF1 mice, colon carcinoma 38 sc, T/C %
Assay: NCI In Vivo Anticancer Drug Screen. Data for tumor model Colon Carcinoma 38 (subcutaneous) in B6D2F1 (BDF1) mice
Settings: endpoint: median tumor weight (est.), higher = larger tumour
How it was run: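 Transplantable tumor in mice; compound-treated vs vehicle-dosed controls. Measured survival or tumor size; value = T ÷ C.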

[1] = dose: 25.0 mg/kg/injection, schedule: Q07DX002 (ip), vehicle: Klucel (hydroxypropylcellulose) (HPC)
[2] = dose: 50.0 mg/kg/injection, schedule: Q07DX002 (ip), vehicle: saline
[3] = dose: 100.0 mg/kg/injection, schedule: Q07DX002 (ip), vehicle: saline
[4] = dose: 200.0 mg/kg/injection, schedule: Q07DX002 (ip), vehicle: saline
[5] = dose: 400.0 mg/kg/injection, schedule: Q07DX002 (ip), vehicle: saline

`CCCCCC[Se][Se]CCCCCC` was tested. Which T/C (dose: 3.12 mg/kg/injection, schedule: Q07DX002 (ip), vehicle: Klucel (hydroxypropylcellulose) (HPC)) did it give?
Its T/C is 100 % of control.

And the T/C [1]?
Its T/C is 95 % of control.

Which T/C (dose: 12.5 mg/kg/injection, schedule: Q07DX002 (ip), vehicle: saline) does the source give for `COc1cc(C2C3=C(CC(C)(C)CC3=O)N(CC(=O)O)C3=C2C(=O)CC(C)(C)C3)ccc1O` here?
Its T/C is 90 % of control.

What about the T/C (dose: 25.0 mg/kg/injection, schedule: Q07DX002 (ip), vehicle: saline) of the same molecule?
The T/C was 99 % of control.

And the T/C [2]?
Its T/C is 118 % of control.

What about the T/C [3] of the same molecule?
Its T/C is 111 % of control.

What about the T/C [4] of the same molecule?
The T/C was 55 % of control.

What about the T/C [5] of the same molecule?
The T/C was 118 % of control.

For `N#C[C@H](OC1OC(COC2OC(CO)C(O)C(O)C2O)C(O)C(O)C1O)c1ccccc1` (stereo partly drawn), which T/C [2] is on record?
The T/C was 76 % of control.

What about the T/C (dose: 50.0 mg/kg/injection, schedule: Q07DX002 (ip), vehicle: water) of the same molecule?
Its T/C is 70 % of control.

What about the T/C [3] of the same molecule?
Its T/C is 103 % of control.

What about the T/C (dose: 100.0 mg/kg/injection, schedule: Q07DX002 (ip), vehicle: water) of the same molecule?
Its T/C is 70 % of control.

And the T/C [4]?
Its T/C is 62 % of control.

What about the T/C (dose: 200.0 mg/kg/injection, schedule: Q07DX002 (ip), vehicle: water) of the same molecule?
Its T/C is 85 % of control.

And the T/C [5]?
Its T/C is 76 % of control.

And the T/C (dose: 400.0 mg/kg/injection, schedule: Q07DX002 (ip), vehicle: water)?
The T/C was 112 % of control.

What about the T/C (dose: 800.0 mg/kg/injection, schedule: Q07DX002 (ip), vehicle: saline) of the same molecule?
Its T/C is 87 % of control.

What about the T/C (dose: 800.0 mg/kg/injection, schedule: Q07DX002 (ip), vehicle: water) of the same molecule?
The T/C was 83 % of control.

What about the T/C (dose: 1600.0 mg/kg/injection, schedule: Q07DX002 (ip), vehicle: saline) of the same molecule?
The T/C was 98 % of control.

What about the T/C (dose: 1600.0 mg/kg/injection, schedule: Q07DX002 (ip), vehicle: water) of the same molecule?
The T/C was 106 % of control.

`CCOC(=O)CNC(=O)Sc1ccc(C(C)(C)C)cc1` was tested. Which T/C [1] did it give?
The T/C was 117 % of control and 97 % of control.

What about the T/C (dose: 100.0 mg/kg/injection, schedule: Q07DX002 (ip), vehicle: Klucel (hydroxypropylcellulose) (HPC)) of the same molecule?
The T/C was 111 % of control and 95 % of control.

What about the T/C (dose: 200.0 mg/kg/injection, schedule: Q07DX002 (ip), vehicle: Klucel (hydroxypropylcellulose) (HPC)) of the same molecule?
Its T/C is 78 % of control and 81 % of control.

What about the T/C (dose: 400.0 mg/kg/injection, schedule: Q07DX002 (ip), vehicle: Klucel (hydroxypropylcellulose) (HPC)) of the same molecule?
Its T/C is 78 % of control and 102 % of control.

And the T/C (dose: 800.0 mg/kg/injection, schedule: Q07DX002 (ip), vehicle: Klucel (hydroxypropylcellulose) (HPC))?
Its T/C is 54 % of control.

`Cc1cc2c(c3oc(C4(C)OC4C4OC4C)cc(=O)c13)C(=O)c1c(O)c(C3CC(C)(N(C)C)C(O)C(C)O3)cc(C3CC(N(C)C)C(O)C(C)O3)c1C2=O` (stereo not drawn) was tested. Which T/C (dose: 3.75 micrograms/kg/injection, schedule: Q07DX002 (ip), vehicle: Klucel (hydroxypropylcellulose) (HPC)) did it give?
Its T/C is 62 % of control.

And the T/C (dose: 7.5 micrograms/kg/injection, schedule: Q07DX002 (ip), vehicle: Klucel (hydroxypropylcellulose) (HPC))?
The T/C was 90 % of control.

And the T/C (dose: 15.0 micrograms/kg/injection, schedule: Q07DX002 (ip), vehicle: Klucel (hydroxypropylcellulose) (HPC))?
Its T/C is 99 % of control.

What about the T/C (dose: 30.0 micrograms/kg/injection, schedule: Q07DX002 (ip), vehicle: Klucel (hydroxypropylcellulose) (HPC)) of the same molecule?
The T/C was 57 % of control.

For `CC1CN=C(c2ccc(NC(=O)c3ccc(C(=O)Nc4ccc(C5=NCC(C)N5)cc4)cc3)cc2)N1` (stereo not drawn), which T/C (dose: 12.5 mg/kg/injection, schedule: Q07DX003 (ip), vehicle: Klucel (hydroxypropylcellulose) (HPC)) is on record?
The T/C was 78 % of control and 79 % of control.

And the T/C (dose: 25.0 mg/kg/injection, schedule: Q07DX003 (ip), vehicle: Klucel (hydroxypropylcellulose) (HPC))?
Its T/C is 115 % of control and 102 % of control.

And the T/C (dose: 200.0 mg/kg/injection, schedule: Q07DX003 (ip), vehicle: Klucel (hydroxypropylcellulose) (HPC))?
The T/C was 86 % of control.

And the T/C (dose: 400.0 mg/kg/injection, schedule: Q07DX003 (ip), vehicle: Klucel (hydroxypropylcellulose) (HPC))?
Its T/C is 63 % of control.
